Assay results as given in patent US5198452A, “Styryl phridyl compounds and their pharmaceutical compositions” (Yoshitomi Pharmaceutical Industries, Ltd., priority 1991, dated 1993).
Like-named read-outs stand apart in the source and are kept apart here.

Columns and labels:
[1] = tested on: leukotriene D4-induced contraction of guinea pig terminal ileum; test: Inhibition of contractions of guinea pig terminal ileum induced with leukotriene D4; design: species or system guinea pig (male Hartly); conditions: 1 nM LTD4; 2 min incubation; indomethacin 3 μM, atropin 0.3 μM; 37° C
Protocol: The inhibition of contractions of guinea pig terminal ileum induced with leukotriene D4.
Segments of male Hartly guinea pig terminal ileus were mounted under 750 mg tension in a 10 ml organ bath containing a Tyrode solution. To eliminate instrinsic prostaglandin and cholinergic responses, indomethacin (3 μM) and atropin (0.3 μM) were incorporated into bathing solution under continuous aeration at 37° C. […] measurements were made with an isotonic transducer and recorded on a multipen-recorder. After an equilibration period of 30-60 minutes, isotonic responses were 1 nm LTD4 were recorded until reproducible responses obtained. The submaximal contraction induced by 1 nM LTD4 served as control. Test compounds were dissolved in ethanol (0.1% final concentration) and incubated at various concentrations for 2 minutes before contractions were induced with 1 nM LTD4. The inhibition of contraction was calculated relative to the preceding control contraction. The inhibitory concentration (IC50, g/ml) were calculated graphically.

[2] = tested on: bronchoconstriction in guinea pigs induced with leukotriene D4; test: Bronchoconstriction in guinea pigs induced with leukotriene D4; type: in vivo, guinea pig (female Hartley); conditions: Cavia porcellus
Protocol: Actions of bronchoconstriction in guinea pigs induced with leukotriene D4.
Resistance to lung inflation was measured by the overflow method of Konzett and Rossler (Naunyn Schmiedebergs Arch. Exp. pathol. Pharmakol., 195, 71-74, 1940), modified by the use of an air pressure transducer. Female Hartley guinea pigs (350-450 g) were anesthetized with urethane (1.5 g/kg, i.p.). An endotracheal tube was inserted in the trachea and connected to an air pump (Matsushita Denko Co., Ltd.) with an exhaust relay of 50 strokes/minutes (PK-0305-NC, Takasago Electric, Inc.). The animals were artificially ventilated at a constant volume (3-4 ml). Tracheal pressure was recorded with a side-arm of the cannula connected to a pressure transducer (MFP-1, Nihon Kohden Kogyo Co., Ltd.). Test compounds or vehicles were administered i.v. (0.03 ml/100 g) 5 minutes or p.o. (0.5 ml/100 g) 1 hour prior to the intraveneous injection of LT04 (1 μg/kg). All compounds were injected through the cannulated jugular vein. The peak bronchoconstriction of each animal was determined as the percentage of the maximal pressure obtained by clamping off the trachea at the end of each experiment.
The inhibitory effect of the test compounds were expressed as follows: % of inhibition=(1-T/C)×100 wherein T and C are the average peak bronchoconstrictions for the compounds of the present invention and the vehicle, respectively.
The 50% effective doses (ED50, mg/kg) were calculated graphically.

[3] = Acute toxicity; conditions: mouse, in vivo, single administration, after 10 days, Litchfield-Wilcoxon
Protocol: EXPERIMENT EXAMPLE 3: ACUTE TOXICITY
The compound of Example 1 of the present invention was intraveneously (iv) or orally (po) administered to a group of male ddy mice once. After 10 days, the LD50 values were determined by the Litchfield-Wilcoxon method.

[4] = 5 min, iv, 5 minutes prior to LTD4 (1 μg/kg i.v.), read-out: Action of Bronchoconstriction in guinea pigs induced with LTD4 [ED50 (mg/kg)] iv
[5] = po, 1 hour prior to LTD4 (1 μg/kg i.v.), read-out: Action of Bronchoconstriction in guinea pigs induced with LTD4 [ED50 (mg/kg)] po

Structure (SMILES) | The inhibition of contractions of guinea pig terminal ileum induces with LTD4 [IC50 (g/ml)] [1] [g/mL] | ED50 [2, 4] [mg/kg] | ED50 [2, 5] [mg/kg] | LD50 at 240 h ([3]; iv, read-out: LD50 (mg/kg), iv) [mg/kg] | LD50 at 240 h ([3]; po, read-out: LD50 (mg/kg), po) [mg/kg]
CCCc1c(OCCCCc2nnn[nH]2)ccc(C(C)=O)c1O [Compound L, 1-[2-hydroxy-3-propyl-4-(4-(1H-tetrazol-5-yl)butoxy)phenyl]ethanone, reference compound] | 2.5e-08 | 0.28 | 22 |  | 
CCCCOc1ccc(CCCCOCc2cccc(/C=C/c3cccc(NC(=O)CC(CC)(CC)C(=O)O)c3)n2)cc1 [Compound J, 2-[(E)-2-(3-(3-carboxy-3-ethylvalerylamino)phenyl)ethenyl]-6-[4-(4-butoxyphenyl)butoxy]methylpyridine 3/2 hydrate] | 9e-11 | 0.0046 | 0.46 |  | 
CCCCc1ccc(CCCCOCc2cccc(/C=C/c3cccc(NC(=O)CC(CC)(CC)C(=O)O)c3)n2)cc1 [Compound B, 2-[(E)-2-(3-(3-carboxy-3-ethylvalerylamino)phenyl)ethenyl]-6-[4-(4-butylphenyl)butoxy]methylpyridine] | 1.1e-10 | 0.0054 | 0.8 |  | 
CCC(CC)(CC(=O)Nc1cccc(/C=C/c2cccc(COCCCCc3ccccc3)n2)c1)C(=O)O [Compound A, 2-[(E)-2-(3-(3-carboxy-3-ethylvalerylamino)phenyl)ethenyl]-6-(4-phenylbutoxy)methylpyridine 1/2 hydrate] | 2.2e-09 | 0.037 | 1.3 |  | 
CCC(CC)(CC(=O)Nc1cccc(/C=C/c2cccc(COCCCCc3ccc(CC(C)C)cc3)n2)c1)C(=O)O [Compound G, 2-[(E)-2-(3-(3-carboxy-3-ethylvalerylamino)phenyl)ethenyl]-6-[4-(4-isobutylphenyl)butoxy]methylpyridine] | 3.6e-10 | 0.0012 | 1.6 |  | 
CCCc1ccc(CCCCOCc2cccc(/C=C/c3cccc(NC(=O)CC(CC)(CC)C(=O)O)c3)n2)cc1 [Compound E, 2-[(E)-2-(3-(3-carboxy-3-ethylvalerylamino)phenyl)ethenyl]-6-[4-(4-propylphenyl)butoxy]methylpyridine 1/4 hydrate] | 6e-10 | 0.006 | 1.9 |  | 
CCCOc1ccc(CCCCOCc2cccc(/C=C/c3cccc(NC(=O)CC(CC)(CC)C(=O)O)c3)n2)cc1 [Compound I, 2-[(E)-2-(3-(3-carboxy-3-ethylvalerylamino)phenyl)ethenyl]-6-[4-(4-propoxyphenyl)butoxy]methylpyridine] | 7.6e-11 | 0.0023 | 2.5 |  | 
CCOc1ccc(CCCCOCc2cccc(/C=C/c3cccc(NC(=O)CC(CC)(CC)C(=O)O)c3)n2)cc1 [Compound H, 2-[(E)-2-(3-(3-carboxy-3-ethylvalerylamino)phenyl)ethenyl]-6-[4-(4-ethoxyphenyl)butoxy]methylpyridine] | 1.8e-10 | 0.01 | 2 |  | 
CCC(CC)(CC(=O)Nc1cccc(/C=C/c2cccc(COCCCCc3ccc(C)cc3)n2)c1)C(=O)O [Example 1, 2-[(E)-2-(3-(3-carboxy-3-ethylvalerylamino)phenyl)ethenyl]-6-[4-(4-methylphenyl)butoxy]methylpyridine] |  |  |  | > 300 | > 1000
CCC(CC)(CC(=O)Nc1cccc(/C=C/c2cccc(COCCCCc3ccc(C(C)C)cc3)n2)c1)C(=O)O [Compound F, 2-[(E)-2-(3-(3-carboxy-3-ethylvalerylamino)phenyl)ethenyl]-6-[4-(4-isopropylphenyl)butoxy]methylpyridine] | 4e-10 | 0.014 | 2.2 |  | 
CCC(CC)(CC(=O)Nc1cccc(/C=C/c2cccc(COCCCCc3ccc(F)cc3)n2)c1)C(=O)O [Compound C, 2-[(E)-2-(3-(3-carboxy-3-ethylvalerylamino)phenyl)ethenyl]-6-[4-(4-fluorophenyl)butoxy]methylpyridine 1/2 hydrate] | 2.5e-09 | 0.03 | 0.7 |  | 
CCc1ccc(CCCCOCc2cccc(/C=C/c3cccc(NC(=O)CC(CC)(CC)C(=O)O)c3)n2)cc1 [Compound D, 2-[(E)-2-(3-(3-carboxy-3-ethylvalerylamino)phenyl)ethenyl]-6-[4-(4-ethylphenyl)butoxy]methylpyridine] | 6.6e-11 | 0.0023 | 1 |  | 
CCC(CC)(CC(=O)Nc1cccc(/C=C/c2cccc(COCCCCc3ccc(OCCC(C)C)cc3)n2)c1)C(=O)O [Compound K, 2-[(E)-2-(3-(3-carboxy-3-ethylvalerylamino)phenyl)ethenyl]-6-[4-(4-isopentyloxyphenyl)butoxy]methylpyridine 1/2 hydrate] | 3.1e-10 | 0.0036 | 0.25 |  | 
